Test results as given in ChEMBL document CHEMBL1201862, “PubChem BioAssay data set” (2004).
Active and inactive are the calls of the source.

How the values were obtained:
[1] = target: Voltage-dependent T-type calcium channel subunit alpha-1H (Homo sapiens, UniProt O95180); format: functional;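 note: channel activity triggered by adding a high calcium stimulation buffer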
Protein RecA = target: T1, Protein RecA (Mycobacterium tuberculosis, UniProt P9WHJ3); assay: Fluorescence Cell-Free Homogeneous Dose Retest to Identify Inhibitors of RecA-Intein Splicing Activity. [Related pubchem assays (depositor defined):AID2097, AID2223, AID489010, AID492950]; format: functional
T1 sequence (P9WHJ3 whole entry): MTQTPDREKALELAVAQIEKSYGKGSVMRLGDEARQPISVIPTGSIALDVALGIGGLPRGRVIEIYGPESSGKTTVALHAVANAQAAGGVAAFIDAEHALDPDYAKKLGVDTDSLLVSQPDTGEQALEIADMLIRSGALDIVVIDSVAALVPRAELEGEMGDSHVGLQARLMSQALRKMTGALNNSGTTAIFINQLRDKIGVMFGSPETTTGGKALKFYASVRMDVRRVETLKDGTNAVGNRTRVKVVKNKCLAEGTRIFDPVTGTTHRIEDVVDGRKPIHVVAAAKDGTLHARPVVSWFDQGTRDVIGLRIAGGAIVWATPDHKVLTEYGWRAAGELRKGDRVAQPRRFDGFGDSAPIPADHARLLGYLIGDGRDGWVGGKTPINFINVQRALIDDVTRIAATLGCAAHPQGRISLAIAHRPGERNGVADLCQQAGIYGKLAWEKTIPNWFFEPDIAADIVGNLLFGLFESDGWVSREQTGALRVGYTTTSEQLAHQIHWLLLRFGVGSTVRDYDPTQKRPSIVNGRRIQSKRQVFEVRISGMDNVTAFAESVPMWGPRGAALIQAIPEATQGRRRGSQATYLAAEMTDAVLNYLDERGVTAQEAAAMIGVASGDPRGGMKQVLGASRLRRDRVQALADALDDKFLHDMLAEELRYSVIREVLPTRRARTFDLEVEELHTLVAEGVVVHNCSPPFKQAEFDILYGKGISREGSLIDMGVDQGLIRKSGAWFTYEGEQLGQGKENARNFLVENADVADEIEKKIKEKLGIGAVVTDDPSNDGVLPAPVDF

[2] = target: T2, Replicative DNA helicase DnaB (Mycobacterium tuberculosis, UniProt P9WMR3); assay: DnaB intein splicing inhibitors, dose response, biochemical, cell-free fluorescence (AID 449749); format: functional
T2 sequence (P9WMR3 whole entry): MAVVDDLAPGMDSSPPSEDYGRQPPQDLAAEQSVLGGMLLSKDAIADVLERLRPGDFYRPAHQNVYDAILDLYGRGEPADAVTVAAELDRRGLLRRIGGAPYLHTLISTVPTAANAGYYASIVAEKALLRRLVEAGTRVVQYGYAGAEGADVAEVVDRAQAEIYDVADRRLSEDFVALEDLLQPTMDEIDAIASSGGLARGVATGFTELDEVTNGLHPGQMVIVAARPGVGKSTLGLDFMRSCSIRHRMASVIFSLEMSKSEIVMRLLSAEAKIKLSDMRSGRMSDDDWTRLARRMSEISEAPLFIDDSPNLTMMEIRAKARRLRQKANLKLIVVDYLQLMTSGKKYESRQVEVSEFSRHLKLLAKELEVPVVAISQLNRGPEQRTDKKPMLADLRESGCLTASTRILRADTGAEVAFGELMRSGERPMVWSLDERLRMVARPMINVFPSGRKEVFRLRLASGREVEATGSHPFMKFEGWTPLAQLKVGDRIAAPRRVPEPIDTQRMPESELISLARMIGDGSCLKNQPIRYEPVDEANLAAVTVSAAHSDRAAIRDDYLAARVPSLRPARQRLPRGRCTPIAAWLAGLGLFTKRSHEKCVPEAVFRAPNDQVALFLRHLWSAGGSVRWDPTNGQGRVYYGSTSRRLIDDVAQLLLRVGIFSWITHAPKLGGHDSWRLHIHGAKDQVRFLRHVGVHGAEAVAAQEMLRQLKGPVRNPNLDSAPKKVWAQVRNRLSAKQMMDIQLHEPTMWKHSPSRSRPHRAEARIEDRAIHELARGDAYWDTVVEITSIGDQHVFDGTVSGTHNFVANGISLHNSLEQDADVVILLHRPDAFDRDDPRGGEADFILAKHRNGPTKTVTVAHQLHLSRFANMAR

[3] = loss of viability in HepG2 cells – cell-based, CellTiter-Glo, cherry-picked, cytotoxicity control for Shn3 inhibitor project, dose response (AID 624134); format: functional
[4] = non-specific 3'UTR reporter inhibition in Clone20-Shn3RL – cell-based, Renilla luciferase, cherry-picked, counter-screen for Shn3 inhibitor project, dose response (AID 624133); format: functional
[5] = target: T3, Carboxy-terminal domain RNA polymerase II polypeptide A small phosphatase 1 (Homo sapiens, UniProt Q9GZU7); assay: CTDSP1 inhibitors, concentration-response, biochemical, absorbance readout, ultra-high-throughput screen actives (AID 540297); format: functional
T3 sequence (Q9GZU7 whole entry): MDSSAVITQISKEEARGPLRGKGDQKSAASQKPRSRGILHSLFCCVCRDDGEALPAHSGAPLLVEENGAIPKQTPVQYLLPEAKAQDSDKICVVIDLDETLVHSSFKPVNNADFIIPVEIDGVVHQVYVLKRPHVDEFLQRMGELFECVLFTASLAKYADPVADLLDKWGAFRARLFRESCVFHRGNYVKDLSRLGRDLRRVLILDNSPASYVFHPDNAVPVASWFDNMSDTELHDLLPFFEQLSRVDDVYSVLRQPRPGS

[6] = target: Heat shock protein HSP 90-alpha (Homo sapiens, UniProt P07900); format: functional, organism-based
[7] = target: T4, Heat shock factor protein 1 (Mus musculus, UniProt P38532); assay: enhancement of HSF1-driven luciferase signal – cell-based, NIH3T3, luminescence, dose retest, confirmation (AID 435004); format: functional;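 note: stress induced by proteasome inhibitor MG132 added 30 min after compound; luciferase reporter driven by HSF1 response element in NIH3T3 cells; actives raise luminescence as potentiators of the MG132 stress response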
T4 sequence (P38532 whole entry): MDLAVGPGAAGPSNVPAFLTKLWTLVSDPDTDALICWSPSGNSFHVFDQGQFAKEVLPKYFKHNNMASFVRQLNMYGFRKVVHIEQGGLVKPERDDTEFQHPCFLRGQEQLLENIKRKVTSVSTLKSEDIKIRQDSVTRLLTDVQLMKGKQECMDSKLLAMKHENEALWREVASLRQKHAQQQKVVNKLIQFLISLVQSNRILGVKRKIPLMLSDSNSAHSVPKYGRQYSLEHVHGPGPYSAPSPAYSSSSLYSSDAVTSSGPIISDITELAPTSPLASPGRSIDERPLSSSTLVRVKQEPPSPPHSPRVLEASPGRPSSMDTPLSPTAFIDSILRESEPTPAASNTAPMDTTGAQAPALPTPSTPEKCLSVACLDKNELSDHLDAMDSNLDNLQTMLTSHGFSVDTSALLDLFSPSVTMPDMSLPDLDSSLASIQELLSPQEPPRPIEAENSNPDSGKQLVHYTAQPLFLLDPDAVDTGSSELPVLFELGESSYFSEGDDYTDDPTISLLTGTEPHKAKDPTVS

[8] = reduction of Shn3 3'UTR-driven luciferase in osteoblasts – cell-based, Clone20 osteoblasts, firefly luciferase, cherry-picked, dose response (AID 624132); format: functional;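 note: firefly luciferase luminescence from reporter carrying the Shn3 3'UTR in osteoblasts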
Protein skinhead-1 = target: T5, Protein skinhead-1 (Caenorhabditis elegans, UniProt P34707); format: functional
T5 sequence (P34707 whole entry): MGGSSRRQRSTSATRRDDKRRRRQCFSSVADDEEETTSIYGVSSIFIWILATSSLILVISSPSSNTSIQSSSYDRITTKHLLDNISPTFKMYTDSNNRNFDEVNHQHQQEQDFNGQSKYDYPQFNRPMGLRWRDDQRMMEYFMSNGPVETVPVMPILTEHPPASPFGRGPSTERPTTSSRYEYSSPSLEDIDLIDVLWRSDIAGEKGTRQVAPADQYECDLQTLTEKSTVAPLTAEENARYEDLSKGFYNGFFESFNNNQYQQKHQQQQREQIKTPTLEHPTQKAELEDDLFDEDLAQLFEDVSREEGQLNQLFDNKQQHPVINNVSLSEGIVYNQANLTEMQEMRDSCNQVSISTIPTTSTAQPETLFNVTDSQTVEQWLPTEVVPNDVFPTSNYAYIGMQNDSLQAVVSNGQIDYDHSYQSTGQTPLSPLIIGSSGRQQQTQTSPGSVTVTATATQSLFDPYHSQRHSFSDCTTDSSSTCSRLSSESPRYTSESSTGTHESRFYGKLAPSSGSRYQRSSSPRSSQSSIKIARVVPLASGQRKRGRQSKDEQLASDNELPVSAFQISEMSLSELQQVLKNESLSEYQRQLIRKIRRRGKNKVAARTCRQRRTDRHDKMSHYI

[9] = target: T6, Corticotropin-releasing factor receptor 2/Corticotropin-releasing factor-binding protein (Homo sapiens, UniProt P24387+Q13324); assay: activators of CRF receptor 2 with binding protein – uHTS hits, confirmation (AID 602473); format: functional; settings: read-out: EC50_Mean
T6 sequence (Q13324 whole entry): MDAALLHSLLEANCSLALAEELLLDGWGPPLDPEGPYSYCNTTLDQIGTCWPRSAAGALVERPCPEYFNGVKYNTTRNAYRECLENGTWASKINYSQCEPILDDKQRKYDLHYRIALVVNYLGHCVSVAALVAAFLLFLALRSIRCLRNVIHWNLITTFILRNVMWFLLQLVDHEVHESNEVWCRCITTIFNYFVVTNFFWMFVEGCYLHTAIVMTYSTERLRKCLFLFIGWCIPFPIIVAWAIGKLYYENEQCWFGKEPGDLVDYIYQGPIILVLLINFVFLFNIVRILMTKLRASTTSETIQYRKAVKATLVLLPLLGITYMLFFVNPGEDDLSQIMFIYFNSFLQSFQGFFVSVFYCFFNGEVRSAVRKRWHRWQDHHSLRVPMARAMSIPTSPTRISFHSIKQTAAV
T6 sequence (P24387 whole entry): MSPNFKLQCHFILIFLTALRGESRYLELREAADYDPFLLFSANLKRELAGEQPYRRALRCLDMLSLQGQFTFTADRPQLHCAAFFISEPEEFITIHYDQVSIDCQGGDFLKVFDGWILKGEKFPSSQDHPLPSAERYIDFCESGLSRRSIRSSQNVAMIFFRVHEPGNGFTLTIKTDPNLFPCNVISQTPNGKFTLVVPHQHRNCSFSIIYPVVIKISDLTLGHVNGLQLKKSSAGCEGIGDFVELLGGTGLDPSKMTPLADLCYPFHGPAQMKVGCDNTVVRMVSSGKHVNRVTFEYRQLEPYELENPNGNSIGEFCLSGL

Paired box protein Pax-8 = Paired box protein Pax-8 (Homo sapiens, UniProt Q06710); assay: PAX8 transcriptional activity inhibition in RMG-I – RMG-I cells, luciferase, cherry-pick, dose response (AID 687027); format: functional, cell-based;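 note: luciferase reporter driven by Pax8 target thyroperoxidase promoter measured by SteadyGlo luminescence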
Chain of Paired box protein Pax-8 (Q06710 whole entry): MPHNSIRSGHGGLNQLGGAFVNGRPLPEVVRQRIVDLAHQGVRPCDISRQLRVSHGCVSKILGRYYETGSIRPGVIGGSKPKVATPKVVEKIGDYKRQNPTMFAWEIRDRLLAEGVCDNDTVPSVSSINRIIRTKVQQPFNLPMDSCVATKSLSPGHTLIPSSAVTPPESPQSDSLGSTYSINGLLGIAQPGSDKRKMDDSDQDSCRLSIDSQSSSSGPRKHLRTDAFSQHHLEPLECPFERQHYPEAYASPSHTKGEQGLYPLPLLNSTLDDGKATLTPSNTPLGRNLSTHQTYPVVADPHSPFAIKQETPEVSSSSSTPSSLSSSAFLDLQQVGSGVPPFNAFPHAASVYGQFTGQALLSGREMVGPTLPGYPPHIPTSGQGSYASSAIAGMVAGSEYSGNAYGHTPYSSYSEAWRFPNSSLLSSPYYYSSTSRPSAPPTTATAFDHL

[10] = Luminescence Cell-Based Dose Retest to Confirm Inhibitors of Cancer Stem Cells. [Related pubchem assays (depositor defined):AID2717, AID2721]; format: functional; settings: Homo sapiens
[11] = intracellular Trypanosoma cruzi inhibitors in host cells – cell-based, plate reader, cherry-pick samples, set 3, dose response (AID 651818); format: functional;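 note: compounds incubated with infected cells for about four days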

Chain of Voltage-dependent T-type calcium channel subunit alpha-1H (O95180 whole entry): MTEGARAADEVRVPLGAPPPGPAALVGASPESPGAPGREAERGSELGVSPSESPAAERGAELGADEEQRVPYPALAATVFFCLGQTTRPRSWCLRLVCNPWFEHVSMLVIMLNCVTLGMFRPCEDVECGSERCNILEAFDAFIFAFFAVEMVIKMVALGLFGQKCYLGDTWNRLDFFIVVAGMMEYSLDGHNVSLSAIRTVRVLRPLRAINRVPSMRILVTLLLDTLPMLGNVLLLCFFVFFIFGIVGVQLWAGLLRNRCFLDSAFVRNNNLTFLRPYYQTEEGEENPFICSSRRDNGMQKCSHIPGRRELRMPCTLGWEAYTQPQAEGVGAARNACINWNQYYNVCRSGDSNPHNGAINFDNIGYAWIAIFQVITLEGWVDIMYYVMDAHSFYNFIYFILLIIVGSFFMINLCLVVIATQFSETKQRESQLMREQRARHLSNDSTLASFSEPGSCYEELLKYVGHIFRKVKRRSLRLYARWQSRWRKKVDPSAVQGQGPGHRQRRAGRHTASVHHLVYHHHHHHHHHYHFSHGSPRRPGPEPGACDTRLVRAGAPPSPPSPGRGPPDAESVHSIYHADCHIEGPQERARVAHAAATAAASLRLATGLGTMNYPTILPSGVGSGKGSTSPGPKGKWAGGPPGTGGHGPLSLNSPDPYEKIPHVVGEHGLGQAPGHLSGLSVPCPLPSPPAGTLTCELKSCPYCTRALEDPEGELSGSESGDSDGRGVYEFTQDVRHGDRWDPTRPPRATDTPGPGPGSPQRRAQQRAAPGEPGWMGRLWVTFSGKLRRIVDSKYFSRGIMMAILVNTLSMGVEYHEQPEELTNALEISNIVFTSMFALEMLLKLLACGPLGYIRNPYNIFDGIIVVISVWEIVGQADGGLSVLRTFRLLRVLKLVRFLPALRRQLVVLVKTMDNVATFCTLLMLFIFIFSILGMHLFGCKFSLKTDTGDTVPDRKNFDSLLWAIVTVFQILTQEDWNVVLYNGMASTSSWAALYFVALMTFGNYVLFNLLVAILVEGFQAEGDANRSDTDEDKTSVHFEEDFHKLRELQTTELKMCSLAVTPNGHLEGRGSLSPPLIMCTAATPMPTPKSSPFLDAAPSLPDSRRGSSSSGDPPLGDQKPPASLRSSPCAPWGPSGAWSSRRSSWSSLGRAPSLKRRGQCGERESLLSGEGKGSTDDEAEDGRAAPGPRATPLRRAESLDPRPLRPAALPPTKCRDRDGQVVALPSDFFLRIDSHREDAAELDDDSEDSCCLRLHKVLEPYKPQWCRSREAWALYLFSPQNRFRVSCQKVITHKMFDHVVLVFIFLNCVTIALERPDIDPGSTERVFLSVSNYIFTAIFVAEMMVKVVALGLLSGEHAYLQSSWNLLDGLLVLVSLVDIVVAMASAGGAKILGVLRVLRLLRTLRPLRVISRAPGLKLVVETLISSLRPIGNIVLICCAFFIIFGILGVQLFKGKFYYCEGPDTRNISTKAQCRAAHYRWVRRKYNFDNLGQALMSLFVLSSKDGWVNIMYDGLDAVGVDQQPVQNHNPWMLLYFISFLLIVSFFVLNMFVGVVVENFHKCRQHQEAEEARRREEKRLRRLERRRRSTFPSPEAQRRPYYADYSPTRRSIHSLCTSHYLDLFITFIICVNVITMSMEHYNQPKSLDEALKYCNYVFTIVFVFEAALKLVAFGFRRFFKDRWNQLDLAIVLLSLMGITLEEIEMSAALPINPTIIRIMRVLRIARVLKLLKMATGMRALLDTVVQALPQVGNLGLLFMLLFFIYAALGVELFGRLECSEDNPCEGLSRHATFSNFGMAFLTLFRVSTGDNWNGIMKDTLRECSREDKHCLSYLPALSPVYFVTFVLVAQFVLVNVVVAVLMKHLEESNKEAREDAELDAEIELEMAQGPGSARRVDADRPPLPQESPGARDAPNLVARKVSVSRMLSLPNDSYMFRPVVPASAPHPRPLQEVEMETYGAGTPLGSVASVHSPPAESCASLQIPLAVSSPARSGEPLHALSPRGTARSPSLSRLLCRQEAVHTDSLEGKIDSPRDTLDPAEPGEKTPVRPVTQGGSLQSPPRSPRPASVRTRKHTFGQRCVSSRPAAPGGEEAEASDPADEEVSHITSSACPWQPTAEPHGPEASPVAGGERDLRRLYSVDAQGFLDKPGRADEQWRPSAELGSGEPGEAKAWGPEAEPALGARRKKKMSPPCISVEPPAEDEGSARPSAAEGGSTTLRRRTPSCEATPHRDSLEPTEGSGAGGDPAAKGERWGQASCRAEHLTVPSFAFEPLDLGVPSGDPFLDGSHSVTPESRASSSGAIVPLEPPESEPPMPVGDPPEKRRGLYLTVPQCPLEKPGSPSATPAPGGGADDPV

CC1CCCN(C(=O)CSCC(=O)Nc2nc(-c3cccs3)cs2)C1 (centres undefined)
EC50 [1]: 4.52 µM (active)

COc1ccc(NC(=O)C2CCCN2S(=O)(=O)c2ccc3c(c2)CCC(=O)N3)cc1 (centres undefined)
EC50 [1]: 9.23 µM (active)

Cc1[nH]c2ccccc2c1NC(=O)CN1CCN(c2cccc(C(F)(F)F)c2)CC1
EC50 [1]: 4.61 µM (active)

CC1=NN(c2cccc([N+](=O)[O-])c2)C(=O)C1
EC50 (Protein RecA): 19.5 µM (active) | AC50 [2]: 14.4 µM (active) | AC50 [3]: > 70 µM (inactive) | AC50 [4]: 29.5 µM (active)

Cc1nc(SCC(=O)NCc2ccc3c(c2)OCO3)c(C#N)c2c1CCCC2
EC50 [1]: 5.41 µM (active)

O=C(CCNC(=O)c1ccccc1)NN=Cc1ccc(Br)o1
IC50 [5]: 10.2 µM (active)

COc1ccc(S(=O)(=O)NC2CC3CCC2C3)cc1Cl (centres undefined)
AC50 [6]: 3.41 µM (active)

COc1cc(/C=C2\SC(=S)N(Nc3ncc(C(F)(F)F)cc3Cl)C2=O)ccc1O
AC50 [6]: 12.4 µM (active) | EC50 [7]: 36 µM (active)

COc1ccc([C@H]2CC(=O)C=C(c3ccc(F)cc3OCc3ccccc3)C2)cc1OC
AC50 [3]: > 70 µM (inactive) | AC50 [8]: 7.36 µM (active) | AC50 [4]: 16.1 µM (active)

O=C(NCc1ccc2c(c1)OCO2)C1CC(c2ccc(Cl)cc2)=NO1 (centres undefined)
EC50 [1]: 0.496 µM (active)

CCN(CC)C(=S)Sc1c(-c2ccccc2)c2cc(Cl)ccc2[nH]c1=O
IC50 (Protein skinhead-1): > 100 µM (inactive) | EC50 [9]: > 53 µM (inactive)

CC(=O)c1cccc(-c2csc3ncnc(Sc4nnnn4C)c23)c1
AC50 (Paired box protein Pax-8): 3.1 µM (active) | AC50 [3]: 53.4 µM (active) | AC50 [8]: 4.72 µM (active) | AC50 [4]: 15.5 µM (active)

CCCn1c(NCc2c[nH]c3ccccc23)nc2ccccc21
EC50 [1]: 5.89 µM (active)

O=C(Nc1ccc(S(=O)(=O)Nc2nccs2)cc1)c1ccc(O)nc1
IC50 [5]: 7.11 µM (active)

CCN(CC)P(=O)(c1n(CC)cc[n+]1CC)N(CC)CC
IC50 [5]: 3.98 µM (active)

CC(C)CCC(C(=O)NC(C)c1ccccc1)C(=O)NC(C)c1ccccc1 (centres undefined)
IC50 [5]: 11.7 µM (active)

CCC1Sc2ccccc2N(CC(=O)NCCC2=CCCCC2)C1=O (centres undefined)
EC50 [1]: 4.76 µM (active)

COc1ccc(-c2sc3ccccc3c2/C=C/c2ccncc2)cc1
AC50 [6]: 3.9 µM (active) | AC50 [10]: 4.57 µM (active)

Cc1c(CN2CCCC(C(=O)Nc3cccc(-n4cccn4)c3)C2)cnn1C (centres undefined)
IC50 (Protein skinhead-1): > 100 µM (inactive)

C[C@H](CO)N1C[C@H](C)[C@@H](CN(C)Cc2ccc(-c3ccccc3)cc2)Oc2ccc(NS(=O)(=O)c3ccccc3)cc2C1=O
AC50 [11]: 4.49 µM (active)

C[C@H]1CN([C@@H](C)CO)C(=O)c2cccc(NC(=O)c3nc4ccccc4s3)c2O[C@@H]1CN(C)Cc1ccc(-c2ccccc2)cc1
AC50 [11]: 1.22 µM (active)

COc1ccc(NC(=O)N(C)C[C@H]2Oc3c(NS(=O)(=O)c4ccc(F)cc4)cccc3C(=O)N([C@@H](C)CO)C[C@H]2C)cc1
AC50 [11]: 4.14 µM (active)

C[C@@H]1CCCCO[C@H](CN(C)Cc2ccc(C(F)(F)F)cc2)[C@@H](C)CN([C@H](C)CO)C(=O)c2cc(NC(=O)Nc3cccc4ccccc34)ccc2O1
AC50 [11]: 2.91 µM (active)
